Results taken from patent US20170232083A1, “METHODS OF DIAGNOSIS AND TREATMENT OF CELIAC DISEASE IN CHILDREN” (priority 2014, published 2017).

Experiments:
[1] = system: PBMC (polyclonal gluten-specific T cells) of paediatric and adult CD patients; settings: corresponding adult data shown for comparison (14); cited from earlier work
[2] = system: PBMC (polyclonal gluten-specific T cells) of paediatric and adult CD patients; assay: IFN-γ ELISpot of PBMC after 3 day oral wheat challenge (SFU, % of maximal peptide response, dominance scores, EC50; Examples 5-6); assay type: cell-based, human; settings: for Dominance score 3-5yrs (n = 9): CD children 3-5yrs, n = 9, following wheat challenge; for Dominance score 3-5yrs (n = 9) / Dominance score 6-10yrs (n = 10) / Dominance score 11-18yrs (n = 11): mean percentage of maximal peptide response; for Dominance score 6-10yrs (n = 10): CD children 6-10yrs, n = 10, following wheat challenge; for Dominance score 11-18yrs (n = 11): CD children 11-18yrs, n = 11, following wheat challenge; for Dominance score Mean all ages: CD children, following wheat challenge (Table 9); for Dominance scores 3-5 yrs: children with celiac disease 3-5 yrs after wheat challenge (Table 14); for Dominance scores 6-10 yrs: children with celiac disease 6-10 yrs after wheat challenge (Table 14); for Dominance scores 11-18 yrs: children with celiac disease 11-18 yrs after wheat challenge (Table 14); for Dominance scores Mean all ages: mean of all subjects (Table 14)

| Substance | Dominance scores 18+ yrs [1] | magnitude of T cell responses, HLA-DQ2.5 homozygous vs heterozygous [2] | EC50 compared between age groups ([2]; 17 children (3-5, 6-10, 11-18 yrs) and four adults, dose curve 0.1-50 ug/ml) | Dominance score 3-5yrs (n = 9) [2] | Dominance score 6-10yrs (n = 10) [2] | Dominance score 11-18yrs (n = 11) [2] | Dominance score Mean all ages [2] | dominance hierarchy across all age groupings ([2]; Example 5) | dominance hierarchy across all age groups ([2]; Example 6) | response to native vs deamidated form ([2]; all age groups) | Dominance scores 3-5 yrs [2] | Dominance scores 6-10 yrs [2] | Dominance scores 11-18 yrs [2] | Dominance scores Mean all ages [2] | IFN-γ ELISpot responses Day 0 prior to vs Day 6 after wheat challenge ([2]; p<0.05, Kruskal Wallis) |
| --- | --- | --- | --- | --- | --- | --- | --- | --- | --- | --- | --- | --- | --- | --- | --- |
| LQPFPQPELPYPQP [Peptide W02, contains DQ2.5-glia-a1a and a2] | 58 | significantly greater | a difference was observed between 3-5 yrs and 6-10 yrs | 74.8 | 56.9 | 59.6 | 63.3 | most dominant three peptides | most dominant four peptides | Deamidation enhanced the response | 77 | 57 | 60 | 64 | Significant gluten-specific responses were observed on Day 6 only |
| W08 (LQPFPQPELPYSQP) [Peptide W08] | 8 |  |  | 42.1 | 51.7 | 40.2 | 44.9 |  |  |  | 45 | 52 | 40 | 45 |  |
| W16 (FPQPEQEFPQPQQ) [Peptide W16] | 0 |  |  | 19.8 | 47.3 | 26.1 | 32.6 |  |  |  | 23 | 47 | 26 | 33 |  |
